The values that follow come from patent publication US12310975B2, “Modulators of BCL6 proteolysis and associated methods of use” (Arvinas Operations, Inc., priority 2019, dated 2025).

The experiment has as its target BCL6 (Homo sapiens (Human), UniProt P41182). As to the kind of experiment: Immunofluorescence high content imaging of BCL6 degradation in T47D cells. In kind it is cell-based. The note with it: T47D cells. In outline: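 T47D cells were treated 3 days at 37 °C with an 11-point 3-fold dilution series (top 0.1 or 1 μM), then fixed, permeabilized and immunostained for BCL6 with Alexa-488 secondary, CellMask and Hoechst. BCL6 signal was imaged at 10×, 4 fields/well, with top-hat smoothing.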
A word on the Dmax: it is the greatest extent of degradation seen. Low values mean shallow degradation, high ones deep degradation. Broadly, the IC50 is the concentration at which inhibition is half-maximal. Regarding `CNC(=O)COc1cc2cc(Nc3nc(N4CCC(CN5CCC6(CC5)CN(c5ccc7c(c5)C(=O)N(C5CCC(=O)NC5=O)C7=O)C6)CC4)ncc3Cl)ccc2n(C(C)C)c1=O` (stereo not shown) [compound 372, 2-{[6-({5-chloro-2-[4-({2-[2-(2,6-dioxopiperidin-3-yl)-1,3-dioxo-2,3-dihydro-1H-isoindol-5-yl]-2,7-diazaspiro[3.5]nonan-7-yl}methyl)piperidin-1-yl]pyrimidin-4-yl}amino)-2-oxo-1-(propan-2-yl)-1,2-dihydroquinolin-3-yl]oxy}-N-methylacetamide], the maximal degradation (Dmax) is 50 to 70% and the IC50 was less than 10 nM.
For `CNC(=O)COc1cc2cc(Nc3nc(NCCc4ccc(C(=O)NC5CCC(=O)NC5=O)nc4)ncc3Cl)ccc2n(C(C)C)c1=O` (stereo not shown) [compound 373, 5-(2-{[5-chloro-4-({3-[(methylcarbamoyl)methoxy]-2-oxo-1-(propan-2-yl)-1,2-dihydroquinolin-6-yl}amino)pyrimidin-2-yl]amino}ethyl)-N-(2,6-dioxopiperidin-3-yl)pyridine-2-carboxamide], the IC50 was no less than 100 nM.
In turn, `CNC(=O)COc1cc2cc(Nc3nc(N4CCC(CN5CC6(CCN(c7ccc8c(c7)C(=O)N(C7CCC(=O)NC7=O)C8=O)CC6)C5)CC4)ncc3Cl)ccc2n(C(C)C)c1=O` (stereo not shown) [compound 374, 2-{[6-({5-chloro-2-[4-({7-[2-(2,6-dioxopiperidin-3-yl)-1,3-dioxo-2,3-dihydro-1H-isoindol-5-yl]-2,7-diazaspiro[3.5]nonan-2-yl}methyl)piperidin-1-yl]pyrimidin-4-yl}amino)-2-oxo-1-(propan-2-yl)-1,2-dihydroquinolin-3-yl]oxy}-N-methylacetamide] showed a Dmax of no less than 70% and an IC50 of less than 10 nM.
For the compound `CCn1c(=O)c(OCC(=O)NC)cc2cc(Nc3nc(N4CCN(CC5CCN(c6ccc(C(=O)NC7CCC(=O)NC7=O)c(OC)c6)CC5)CC4)ncc3Cl)ccc21` (stereo not shown) [compound 375, 4-[4-({4-[5-chloro-4-({1-ethyl-3-[(methylcarbamoyl)methoxy]-2-oxo-1,2-dihydroquinolin-6-yl}amino)pyrimidin-2-yl]piperazin-1-yl}methyl)piperidin-1-yl]-N-(2,6-dioxopiperidin-3-yl)-2-methoxybenzamide], the greatest degradation seen (Dmax) lay in the range of 50 to 70% and the half-inhibitory concentration (IC50) is less than 10 nM.
`CNC(=O)COc1cc2cc(Nc3nc(N4CCN(CC5CCN(c6ccc(C(=O)NC7CCC(=O)NC7=O)c(OC)c6)CC5)CC4)ncc3Cl)ccc2n(C(C)C)c1=O` (stereo not shown) [compound 376, 4-[4-({4-[5-chloro-4-({3-[(methylcarbamoyl)methoxy]-2-oxo-1-(propan-2-yl)-1,2-dihydroquinolin-6-yl}amino)pyrimidin-2-yl]piperazin-1-yl}methyl)piperidin-1-yl]-N-(2,6-dioxopiperidin-3-yl)-2-methoxybenzamide] registered a Dmax of 50 to 70% and a concentration for half-maximal inhibition (IC50) of less than 10 nM.
Consider `CNC(=O)COc1cc2cc(Nc3nc(N4CCN(CC5CCN(c6ccc(C(=O)NC7CCC(=O)NC7=O)[n+]([O-])c6)CC5)CC4)ncc3Cl)ccc2n(C)c1=O` (stereo not shown) [compound 377, 5-[4-({4-[5-chloro-4-({1-methyl-3-[(methylcarbamoyl)methoxy]-2-oxo-1,2-dihydroquinolin-6-yl}amino)pyrimidin-2-yl]piperazin-1-yl}methyl)piperidin-1-yl]-2-[(2,6-dioxopiperidin-3-yl)carbamoyl]pyridin-1-ium-1-olate], for which the IC50 was no less than 100 nM.
`CNC(=O)COc1cc2cc(Nc3nc(N4CCO[C@H](CCOc5ccc6c(c5)C(=O)N(C5CCC(=O)NC5=O)C6=O)C4)ncc3Cl)ccc2n(C(C)C)c1=O` (stereo partly drawn) [compound 379, 2-{[6-({5-chloro-2-[(2R)-2-(2-{[2-(2,6-dioxopiperidin-3-yl)-1,3-dioxo-2,3-dihydro-1H-isoindol-5-yl]oxy}ethyl)morpholin-4-yl]pyrimidin-4-yl}amino)-2-oxo-1-(propan-2-yl)-1,2-dihydroquinolin-3-yl]oxy}-N-methylacetamide]: the IC50 was no less than 100 nM.
Turning to `CNC(=O)COc1cc2cc(Nc3nc(N4CCN(CC5CCCN5c5ccc6c(c5)C(=O)N(C5CCC(=O)NC5=O)C6=O)CC4)ncc3Cl)ccc2n(C(C)C)c1=O` (stereo not shown) [compound 380, 2-{[6-({5-chloro-2-[4-({1-[2-(2,6-dioxopiperidin-3-yl)-1,3-dioxo-2,3-dihydro-1H-isoindol-5-yl]pyrrolidin-2-yl}methyl)piperazin-1-yl]pyrimidin-4-yl}amino)-2-oxo-1-(propan-2-yl)-1,2-dihydroquinolin-3-yl]oxy}-N-methylacetamide], the Dmax was less than 50% and the IC50 was 10 to 50 nM.
The compound `CNC(=O)COc1cc2cc(Nc3nc(N4C[C@@H](COc5ccc6c(c5)C(=O)N(C5CCC(=O)NC5=O)C6=O)O[C@H](C)C4)ncc3Cl)ccc2n(C(C)C)c1=O` (stereo partly drawn) [compound 382, 2-{[6-({5-chloro-2-[(2S,6R)-2-({[2-(2,6-dioxopiperidin-3-yl)-1,3-dioxo-2,3-dihydro-1H-isoindol-5-yl]oxy}methyl)-6-methylmorpholin-4-yl]pyrimidin-4-yl}amino)-2-oxo-1-(propan-2-yl)-1,2-dihydroquinolin-3-yl]oxy}-N-methylacetamide] had a Dmax of 50 to 70% and an IC50 of 50 to 100 nM.
In turn, `CNC(=O)COc1cc2cc(Nc3nc(N4C[C@@H](COc5ccc6c(c5)C(=O)N(C5CCC(=O)NC5=O)C6=O)O[C@@H](C)C4)ncc3Cl)ccc2n(C(C)C)c1=O` (stereo partly drawn) [compound 383, 2-{[6-({5-chloro-2-[(25,6S)-2-({[2-(2,6-dioxopiperidin-3-yl)-1,3-dioxo-2,3-dihydro-1H-isoindol-5-yl]oxy}methyl)-6-methylmorpholin-4-yl]pyrimidin-4-yl}amino)-2-oxo-1-(propan-2-yl)-1,2-dihydroquinolin-3-yl]oxy}-N-methylacetamide] yielded a Dmax of 50 to 70% and an IC50 of 10 to 50 nM.
`CNC(=O)COc1cc2cc(Nc3nc(N4CCC5(CC4)CN(CC4CCN(c6ccc7c(c6)C(=O)N(C6CCC(=O)NC6=O)C7=O)CC4)C5)ncc3Cl)ccc2n(C(C)C)c1=O` (stereo not shown) [compound 384] yielded a Dmax of no less than 70% and an IC50 of less than 10 nM.
`CNC(=O)COc1cc2cc(Nc3nc(N4CCC5(CC4)CN(CC4CCN(c6cccc7c6C(=O)N(C6CCC(=O)NC6=O)C7=O)CC4)C5)ncc3Cl)ccc2n(C(C)C)c1=O` (stereo not shown) [compound 385, 2-{[6-({5-chloro-2-[2-({1-[2-(2,6-dioxopiperidin-3-yl)-1,3-dioxo-2,3-dihydro-1H-isoindol-4-yl]piperidin-4-yl}methyl)-2,7-diazaspiro[3.5]nonan-7-yl]pyrimidin-4-yl}amino)-2-oxo-1-(propan-2-yl)-1,2-dihydroquinolin-3-yl]oxy}-N-methylacetamide] had a Dmax of 50 to 70% and an IC50 of less than 10 nM.
As to `CNC(=O)COc1cc2cc(Nc3nc(N4CCC(CN5CCC(c6cccc7c6C(=O)N(C6CCC(=O)NC6=O)C7=O)CC5)CC4)ncc3Cl)ccc2n(C(C)C)c1=O` (stereo not shown) [compound 386, 2-{[6-({5-chloro-2-[4-({4-[2-(2,6-dioxopiperidin-3-yl)-1,3-dioxo-2,3-dihydro-1H-isoindol-4-yl]piperidin-1-yl}methyl)piperidin-1-yl]pyrimidin-4-yl}amino)-2-oxo-1-(propan-2-yl)-1,2-dihydroquinolin-3-yl]oxy}-N-methylacetamide], the greatest degradation seen (Dmax) lay within 50 to 70% and the IC50 was less than 10 nM.
For `CNC(=O)COc1cc2cc(Nc3nc(N4C[C@@H](C)N(CC5CCN(c6cccc7c6C(=O)N(C6CCC(=O)NC6=O)C7=O)CC5)[C@@H](C)C4)ncc3Cl)ccc2n(C(C)C)c1=O` (stereo partly drawn) [compound 387, 2-{[6-({5-chloro-2-[(3R,5S)-4-({1-[2-(2,6-dioxopiperidin-3-yl)-1,3-dioxo-2,3-dihydro-1H-isoindol-4-yl]piperidin-4-yl}methyl)-3,5-dimethylpiperazin-1-yl]pyrimidin-4-yl}amino)-2-oxo-1-(propan-2-yl)-1,2-dihydroquinolin-3-yl]oxy}-N-methylacetamide], the Dmax was 50 to 70% and the IC50 is less than 10 nM.
`CNC(=O)COc1cc2cc(Nc3nc(N4CCN(CC5CCN(c6ccc7c(c6)CN(C6CCC(=O)NC6=O)C7=O)CC5)CC4)ncc3Cl)ccc2n(C(C)C)c1=O` (stereo not shown) [compound 388, 2-{[6-({5-chloro-2-[4-({1-[2-(2,6-dioxopiperidin-3-yl)-1-oxo-2,3-dihydro-1H-isoindol-5-yl]piperidin-4-yl}methyl)piperazin-1-yl]pyrimidin-4-yl}amino)-2-oxo-1-(propan-2-yl)-1,2-dihydroquinolin-3-yl]oxy}-N-methylacetamide] showed a Dmax of 50 to 70% and a concentration for half-maximal inhibition (IC50) of less than 10 nM.
For the compound `CC[C@@H]1CN(c2ncc(Cl)c(Nc3ccc4c(c3)cc(OCC(=O)NC)c(=O)n4C(C)C)n2)C[C@@H](COc2ccc3c(c2)C(=O)N(C2CCC(=O)NC2=O)C3=O)O1` (stereo partly drawn) [compound 389, 2-{[6-({5-chloro-2-[(2S,6R)-2-({[2-(2,6-dioxopiperidin-3-yl)-1,3-dioxo-2,3-dihydro-1H-isoindol-5-yl]oxy}methyl)-6-ethylmorpholin-4-yl]pyrimidin-4-yl}amino)-2-oxo-1-(propan-2-yl)-1,2-dihydroquinolin-3-yl]oxy}-N-methylacetamide], the greatest degradation seen (Dmax) is less than 50% and the IC50 lay within 10 to 50 nM.
In the case of `CNC(=O)COc1cc2cc(Nc3nc(N4CCC(OC5CC6(CCN(c7ccc8c(c7)C(=O)N(C7CCC(=O)NC7=O)C8=O)CC6)C5)CC4)ncc3Cl)ccc2n(C(C)C)c1=O` (stereo not shown) [compound 390, 2-{[6-({5-chloro-2-[4-({7-[2-(2,6-dioxopiperidin-3-yl)-1,3-dioxo-2,3-dihydro-1H-isoindol-5-yl]-7-azaspiro[3.5]nonan-2-yl}oxy)piperidin-1-yl]pyrimidin-4-yl}amino)-2-oxo-1-(propan-2-yl)-1,2-dihydroquinolin-3-yl]oxy}-N-methylacetamide], the Dmax was 50 to 70% and the IC50 was less than 10 nM.
